According to patent US7396837B2, “Antitumoral analogs of lamellarins” (Pharma Mar, S.A.U., priority 2002, dated 2008):

Legend:
Type in all cases: cell-based
SKOV-3 = test: SRB colorimetric cell growth inhibition assay, SKOV-3; conditions: Homo sapiens; for GI50: SK-OV-3, SKOV-3, GI=growth inhibition, read-out: GI50 SKOV-3; for CC50 / IC (TGI): SK-OV-3, SKOV-3; for CC50: LC=cell killing (cytotoxic effect), read-out: LC50 SKOV-3; for IC (TGI): TGI=total growth inhibition (cytostatic effect), read-out: TGI SKOV-3
Summary of the method: (§1)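 SRB colorimetric readout of cell growth/viability in 96-well format. Means ± SD from triplicate wells; GI (growth inhibition), TGI (total growth inhibition, cytostatic) and LC (cell killing, cytotoxic) parameters derived.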

IGROV-ET = test: SRB colorimetric cell growth inhibition assay, IGROV-ET (ET-743 resistant); conditions: Homo sapiens, IGROV-ET; for GI50: GI=growth inhibition, read-out: GI50 IGROV-ET; for CC50: LC=cell killing (cytotoxic effect), read-out: LC50 IGROV-ET; for IC (TGI): TGI=total growth inhibition (cytostatic effect), read-out: TGI IGROV-ET
Summary of the method: (§2)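 Cells are kept under uninterrupted exposure to compound. Staining with sulforhodamine B then measures cell growth and viability. Triplicate data give mean ± SD, from which growth inhibition, total growth inhibition and lethal concentration values follow.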

DU-145 = test: SRB colorimetric cell growth inhibition assay, DU-145; conditions: Homo sapiens, DU-145, DU-145; for GI50: GI=growth inhibition, read-out: GI50 DU-145; for CC50: LC=cell killing (cytotoxic effect), read-out: LC50 DU-145; for IC (TGI): TGI=total growth inhibition (cytostatic effect), read-out: TGI DU-145
Summary of the method: as §2

SK-BR-3 = test: SRB colorimetric cell growth inhibition assay, SK-BR-3; conditions: Homo sapiens, SK-BR-3, SK-BR-3; for GI50: GI=growth inhibition, read-out: GI50 SK-BR-3; for CC50: LC=cell killing (cytotoxic effect), read-out: LC50 SK-BR-3; for IC (TGI): TGI=total growth inhibition (cytostatic effect), read-out: TGI SK-BR-3
Summary of the method: as §2

A-549 = test: SRB colorimetric cell growth inhibition assay, A-549; conditions: Homo sapiens, A549, A-549; for GI50: GI=growth inhibition, read-out: GI50 A-549; for CC50: LC=cell killing (cytotoxic effect), read-out: LC50 A-549; for IC (TGI): TGI=total growth inhibition (cytostatic effect), read-out: TGI A-549
Summary of the method: as §2

H-MEC-1 = test: SRB colorimetric cell growth inhibition assay, H-MEC-1; conditions: Homo sapiens, HMEC-1, H-MEC-1; for GI50: GI=growth inhibition; for IC (TGI): TGI=total growth inhibition (cytostatic effect), read-out: TGI H-MEC-1
Summary of the method: as §1

[1] = as above; conditions: human, H-MEC-1 cells, H-MEC-1; LC=cell killing (cytotoxic effect); read-out: LC50 H-MEC-1
Summary of the method: as §1

LoVo = test: SRB colorimetric cell growth inhibition assay, LoVo; conditions: Homo sapiens, LoVo; for GI50: GI=growth inhibition, read-out: GI50 LOVO; for CC50: LC=cell killing (cytotoxic effect), read-out: LC50 LOVO; for IC (TGI): TGI=total growth inhibition (cytostatic effect), read-out: TGI LOVO
Summary of the method: as §2

HT-29 = test: SRB colorimetric cell growth inhibition assay, HT-29; conditions: Homo sapiens, HT-29, HT-29; for GI50: GI=growth inhibition, read-out: GI50 HT-29; for CC50: LC=cell killing (cytotoxic effect), read-out: LC50 HT-29; for IC (TGI): TGI=total growth inhibition (cytostatic effect), read-out: TGI HT-29
Summary of the method: as §2

K-562 = test: SRB colorimetric cell growth inhibition assay, K-562; conditions: Homo sapiens, K562, K-562; for GI50: GI=growth inhibition, read-out: GI50 K-562; for CC50: LC=cell killing (cytotoxic effect), read-out: LC50 K-562; for IC (TGI): TGI=total growth inhibition (cytostatic effect), read-out: TGI K-562
Summary of the method: as §2

LoVo-Dox = test: SRB colorimetric cell growth inhibition assay, LoVo-Dox (MDR); conditions: Homo sapiens, LOVO-DOX; for GI50: GI=growth inhibition, read-out: GI50 LOVO-DOX; for CC50: LC=cell killing (cytotoxic effect), read-out: LC50 LOVO-DOX; for IC (TGI): TGI=total growth inhibition (cytostatic effect), read-out: TGI LOVO-DOX
Summary of the method: as §2

LNCaP = test: SRB colorimetric cell growth inhibition assay, LNCaP; conditions: Homo sapiens, LNCaP, LN-caP; for GI50: GI=growth inhibition, read-out: GI50 LN-caP; for CC50: LC=cell killing (cytotoxic effect), read-out: LC50 LN-caP; for IC (TGI): TGI=total growth inhibition (cytostatic effect), read-out: TGI LN-caP
Summary of the method: as §2

SK-MEL-28 = test: SRB colorimetric cell growth inhibition assay, SK-MEL-28; conditions: Homo sapiens, SK-MEL-28, MEL-28; for GI50: GI=growth inhibition, read-out: GI50 MEL-28; for CC50: LC=cell killing (cytotoxic effect), read-out: LC50 MEL-28; for IC (TGI): TGI=total growth inhibition (cytostatic effect), read-out: TGI MEL-28
Summary of the method: as §2

IGROV = test: SRB colorimetric cell growth inhibition assay, IGROV; conditions: Homo sapiens, IGROV; for GI50: GI=growth inhibition, read-out: GI50 IGROV; for CC50: LC=cell killing (cytotoxic effect), read-out: LC50 IGROV; for IC (TGI): TGI=total growth inhibition (cytostatic effect), read-out: TGI IGROV
Summary of the method: as §2

PANC-1 = test: SRB colorimetric cell growth inhibition assay, PANC-1; conditions: Homo sapiens, PANC-1, PANC-1; for GI50: GI=growth inhibition, read-out: GI50 PANC-1; for CC50: LC=cell killing (cytotoxic effect), read-out: LC50 PANC-1; for IC (TGI): TGI=total growth inhibition (cytostatic effect), read-out: TGI PANC-1
Summary of the method: as §2

COc1cc2c(cc1OC)-c1c(-c3ccc(OC(=O)[C@H](C)N)c(OC)c3)c3c4cc(OC)c(OC(=O)[C@H](C)N)cc4oc(=O)c3n1CC2 [Compound 63]
GI50 (SKOV-3): 3060 nM | CC50 (SKOV-3): 11.1 µM | IC (TGI) (SKOV-3): 5.84 µM | GI50 (IGROV-ET): 640 nM | CC50 (IGROV-ET): 15.2 µM | IC (TGI) (IGROV-ET): 2.86 µM | GI50 (DU-145): 2200 nM | CC50 (DU-145): 11.7 µM | IC (TGI) (DU-145): 5.08 µM | GI50 (SK-BR-3): 1570 nM | CC50 (SK-BR-3): 14.7 µM | IC (TGI) (SK-BR-3): 4.8 µM | GI50 (A-549): 2840 nM | CC50 (A-549): 10.9 µM | IC (TGI) (A-549): 5.57 µM | GI50 (H-MEC-1): 2720 nM | IC (TGI) (H-MEC-1): 5.25 µM | CC50 [1]: 10.1 µM | GI50 (LoVo): 1460 nM | CC50 (LoVo): 9.11 µM | IC (TGI) (LoVo): 3.68 µM | GI50 (HT-29): 2920 nM | CC50 (HT-29): 11.1 µM | IC (TGI) (HT-29): 5.7 µM | GI50 (K-562): 2900 nM | CC50 (K-562): 15.2 µM | IC (TGI) (K-562): 6.75 µM | GI50 (LoVo-Dox): 909 nM | CC50 (LoVo-Dox): 9.85 µM | IC (TGI) (LoVo-Dox): 2.95 µM | GI50 (LNCaP): 1130 nM | CC50 (LNCaP): 9.61 µM | IC (TGI) (LNCaP): 3.47 µM | GI50 (SK-MEL-28): 2340 nM | CC50 (SK-MEL-28): 10.1 µM | IC (TGI) (SK-MEL-28): 4.87 µM | GI50 (IGROV): 975 nM | CC50 (IGROV): 14.6 µM | IC (TGI) (IGROV): 3.86 µM | GI50 (PANC-1): 1930 nM | CC50 (PANC-1): 13.2 µM | IC (TGI) (PANC-1): 5.05 µM

COc1cc(-c2c3n(c4c(=O)oc5cc(OC(=O)[C@@H](N)COCc6ccccc6)c(OC)cc5c24)CCc2c-3cc(OC)c(OC)c2OC(=O)[C@@H](N)COCc2ccccc2)ccc1OC(=O)[C@@H](N)COCc1ccccc1 [Compound 66]
GI50 (SKOV-3): 2850 nM | CC50 (SKOV-3): 7.12 µM | IC (TGI) (SKOV-3): 6.28 µM | GI50 (IGROV-ET): 1220 nM | CC50 (IGROV-ET): 6.87 µM | IC (TGI) (IGROV-ET): 2.9 µM | GI50 (DU-145): 1730 nM | CC50 (DU-145): 7.12 µM | IC (TGI) (DU-145): 3.65 µM | GI50 (SK-BR-3): 434 nM | CC50 (SK-BR-3): 7.12 µM | IC (TGI) (SK-BR-3): 1.82 µM | GI50 (A-549): 1860 nM | CC50 (A-549): 6.43 µM | IC (TGI) (A-549): 3.46 µM | GI50 (H-MEC-1): 1520 nM | IC (TGI) (H-MEC-1): 2.73 µM | CC50 [1]: 4.93 µM | GI50 (LoVo): 2190 nM | CC50 (LoVo): 7.12 µM | IC (TGI) (LoVo): 7.12 µM | GI50 (HT-29): 2770 nM | CC50 (HT-29): 7.12 µM | IC (TGI) (HT-29): 6.77 µM | GI50 (K-562): 982 nM | CC50 (K-562): 7.12 µM | IC (TGI) (K-562): 2.8 µM | GI50 (LoVo-Dox): 1910 nM | CC50 (LoVo-Dox): 7.12 µM | IC (TGI) (LoVo-Dox): 5.56 µM | GI50 (LNCaP): 890 nM | CC50 (LNCaP): 4.03 µM | IC (TGI) (LNCaP): 1.89 µM | GI50 (SK-MEL-28): 1420 nM | CC50 (SK-MEL-28): 4.55 µM | IC (TGI) (SK-MEL-28): 2.55 µM | GI50 (IGROV): 1350 nM | CC50 (IGROV): 6.75 µM | IC (TGI) (IGROV): 3.02 µM | GI50 (PANC-1): 1950 nM | CC50 (PANC-1): 7.12 µM | IC (TGI) (PANC-1): 7.12 µM
